From US20110318768A1, “METHOD FOR DETERMINING SENSITIVITY OF TUMOR CELLS TO TYROSINE KINASE INHIBITOR AND COMPUTER PROGRAM PRODUCT” (SYSMEX CORPORATION, priority 2010, published 2011)
Like-named read-outs stand apart in the source and are kept apart here.

How the values were obtained:
[1] = test system: BT-483 breast cancer cell line; assay: Growth inhibition by lapatinib (Cell Titer-Glo); assay type: cell-based; conditions: Homo sapiens
Method: (§1) The sensitivity of cell lines to EGFR/HER2 inhibitor was examined by culturing breast cancer cell lines shown in Table 3 in the presence of EGFR/HER2 inhibitor and examining growth inhibition effects on the cell lines.
(§2) The breast cancer cell lines shown in Table 3 were seeded in a 96 well assay plate (#3917: Costar) at 4,000 cells/well, and cultured at 37° C. After 24 hours, the medium was changed to a medium containing a DMSO solution of lapatinib ditosylate hydrate (hereafter also referred to as lapatinib; #L-4804: LC Laboratories) with various concentrations, and the culture was continued at 37° C. for 72 hours. The concentrations of lapatinib in the medium were 0 (control), 0.1, 1, 10, 30, 100, 300, 1,000 and 3,000, and 10,000 nM. The concentration of DMSO in the medium is constant (0.1 (v/v) %) in all of the wells. The cell number in the wells at 0 and 72 hours after exchange of the medium was measured using Cell Titer-Glo Luminescent Cell Viability Assay (#G7571: Promega KK.). The lapatinib concentration to yield half the cell number of the control in 72 hours was determined by fitting with a logistic curve and the concentration was IC50. The cell line whose IC50 was less than 1 μM was defined as a “sensitive line”, while the cell line whose IC50 was 1 μM or more was defined as an “insensitive line”.

[2] = test system: MDA-MB-157 breast cancer cell line; assay: Growth inhibition by lapatinib (Cell Titer-Glo); assay type: cell-based; conditions: Homo sapiens
Method: as §1, §2

[3] = test system: HCC1954 breast cancer cell line; assay: Growth inhibition by lapatinib (Cell Titer-Glo); assay type: cell-based; conditions: Homo sapiens
Method: as §1, §2

[4] = test system: T-47D breast cancer cell line; assay: Growth inhibition by lapatinib (Cell Titer-Glo); assay type: cell-based; conditions: Homo sapiens, T47D
Method: as §1, §2

[5] = test system: HCC1569 breast cancer cell line; assay: Growth inhibition by lapatinib (Cell Titer-Glo); assay type: cell-based; conditions: Homo sapiens
Method: as §1, §2

[6] = test system: MCF7 breast cancer cell line; assay: Growth inhibition by lapatinib (Cell Titer-Glo); assay type: cell-based; conditions: Homo sapiens
Method: as §1, §2

[7] = test system: ZR-75-30 breast cancer cell line; assay: Growth inhibition by lapatinib (Cell Titer-Glo); assay type: cell-based; conditions: Homo sapiens
Method: as §1, §2

[8] = test system: HCC1428 breast cancer cell line; assay: Growth inhibition by lapatinib (Cell Titer-Glo); assay type: cell-based; conditions: Homo sapiens
Method: as §1, §2

[9] = test system: MDA-MB-435S breast cancer cell line; assay: Growth inhibition by lapatinib (Cell Titer-Glo); assay type: cell-based; conditions: Homo sapiens
Method: as §1, §2

[10] = test system: UACC-812 breast cancer cell line; assay: Growth inhibition by lapatinib (Cell Titer-Glo); assay type: cell-based; conditions: Homo sapiens
Method: as §1, §2

[11] = test system: BT-20 breast cancer cell line; assay: Growth inhibition by lapatinib (Cell Titer-Glo); assay type: cell-based; conditions: Homo sapiens
Method: as §1, §2

[12] = test system: CAMA-1 breast cancer cell line; assay: Growth inhibition by lapatinib (Cell Titer-Glo); assay type: cell-based; conditions: Homo sapiens
Method: as §1, §2

[13] = test system: ZR-75-1 breast cancer cell line; assay: Growth inhibition by lapatinib (Cell Titer-Glo); assay type: cell-based; conditions: Homo sapiens
Method: as §1, §2

[14] = test system: HCC202 breast cancer cell line; assay: Growth inhibition by lapatinib (Cell Titer-Glo); assay type: cell-based
Method: as §1, §2

[15] = test system: HCC1937 breast cancer cell line; assay: Growth inhibition by lapatinib (Cell Titer-Glo); assay type: cell-based; conditions: Homo sapiens
Method: as §1, §2

[16] = test system: HCC1806 breast cancer cell line; assay: Growth inhibition by lapatinib (Cell Titer-Glo); assay type: cell-based; conditions: Homo sapiens
Method: as §1, §2

[17] = test system: BT-474 breast cancer cell line; assay: Growth inhibition by lapatinib (Cell Titer-Glo); assay type: cell-based; conditions: Homo sapiens
Method: as §1, §2

[18] = test system: UACC-893 breast cancer cell line; assay: Growth inhibition by lapatinib (Cell Titer-Glo); assay type: cell-based; conditions: Homo sapiens
Method: as §1, §2

[19] = test system: MDA-MB-453 breast cancer cell line; assay: Growth inhibition by lapatinib (Cell Titer-Glo); assay type: cell-based; conditions: Homo sapiens
Method: as §1, §2

[20] = test system: MDA-MB-436 breast cancer cell line; assay: Growth inhibition by lapatinib (Cell Titer-Glo); assay type: cell-based; conditions: Homo sapiens
Method: as §1, §2

[21] = test system: BT-549 breast cancer cell line; assay: Growth inhibition by lapatinib (Cell Titer-Glo); assay type: cell-based; conditions: Homo sapiens
Method: as §1, §2

[22] = test system: HS578T breast cancer cell line; assay: Growth inhibition by lapatinib (Cell Titer-Glo); assay type: cell-based; conditions: Homo sapiens, Hs-578T
Method: as §1, §2

[23] = test system: MDA-MB-415 breast cancer cell line; assay: Growth inhibition by lapatinib (Cell Titer-Glo); assay type: cell-based; conditions: Homo sapiens
Method: as §1, §2

[24] = test system: AU565 breast cancer cell line; assay: Growth inhibition by lapatinib (Cell Titer-Glo); assay type: cell-based; conditions: Homo sapiens
Method: as §1, §2

[25] = test system: HCC1419 breast cancer cell line; assay: Growth inhibition by lapatinib (Cell Titer-Glo); assay type: cell-based; conditions: Homo sapiens
Method: as §1, §2

[26] = test system: SK-BR-3 breast cancer cell line; assay: Growth inhibition by lapatinib (Cell Titer-Glo); assay type: cell-based; conditions: Homo sapiens
Method: as §1, §2

[27] = test system: MDA-MB-468 breast cancer cell line; assay: Growth inhibition by lapatinib (Cell Titer-Glo); assay type: cell-based; conditions: Homo sapiens
Method: as §1, §2

[28] = test system: MDA-MB-231 breast cancer cell line; assay: Growth inhibition by lapatinib (Cell Titer-Glo); assay type: cell-based; conditions: Homo sapiens
Method: as §1, §2

T47D = conditions: Konecny et al.; cited from earlier work
SK-Br-3 = conditions: Konecny et al.; cited from earlier work
MCF7 = conditions: Konecny et al.; cited from earlier work
BT-474 = conditions: Konecny et al.; cited from earlier work
MDA-MB231 = conditions: Konecny et al.; cited from earlier work
[29] = 72 hours culture, read-out: IC50
[30] = read-out: Reference example 1 Sensitivity to lapatinib

- IC50 [1, 29]: > 10 µM
- IC50 [1, 30]: ≥ 1 µM
- IC50 [2, 29]: > 10 µM
- IC50 [2, 30]: ≥ 1 µM
- IC50 [3, 29]: 1470 nM
- IC50 [3, 30]: ≥ 1000 nM
- IC50 [4, 29]: > 10 µM
- IC50 [4, 30]: ≥ 1 µM
- IC50 [5, 29]: 4.82 µM
- IC50 [5, 30]: ≥ 1 µM
- IC50 [6, 29]: > 10 µM
- IC50 [6, 30]: ≥ 1 µM
- IC50 [7, 29]: 211 nM
- IC50 [7, 30]: < 1000 nM
- IC50 [8, 29]: > 10 µM
- IC50 [8, 30]: ≥ 1 µM
- IC50 [9, 29]: > 10 µM
- IC50 [9, 30]: ≥ 1 µM
- IC50 [10, 29]: 490 nM
- IC50 [10, 30]: < 1000 nM
- IC50 [11, 29]: > 10 µM
- IC50 [11, 30]: ≥ 1 µM
- IC50 [12, 29]: > 10 µM
- IC50 [12, 30]: ≥ 1 µM
- IC50 [13, 29]: > 10 µM
- IC50 [13, 30]: ≥ 1 µM
- IC50 [14, 29]: 2470 nM
- IC50 [14, 30]: ≥ 1000 nM
- IC50 [15, 29]: > 10 µM
- IC50 [15, 30]: ≥ 1 µM
- IC50 [16, 29]: > 10 µM
- IC50 [16, 30]: ≥ 1 µM
- IC50 [17, 29]: 80 nM
- IC50 [17, 30]: < 1000 nM
- IC50 [18, 29]: 482 nM
- IC50 [18, 30]: < 1000 nM
- IC50 [19, 29]: 309 nM
- IC50 [19, 30]: < 1000 nM
- IC50 [20, 29]: > 10 µM
- IC50 [20, 30]: ≥ 1 µM
- IC50 [21, 29]: > 10 µM
- IC50 [21, 30]: ≥ 1 µM
- IC50 [22, 29]: > 10 µM
- IC50 [22, 30]: ≥ 1 µM
- IC50 [23, 29]: > 10 µM
- IC50 [23, 30]: ≥ 1 µM
- IC50 [24, 29]: 157 nM
- IC50 [24, 30]: < 1000 nM
- IC50 [25, 29]: 124 nM
- IC50 [25, 30]: < 1000 nM
- IC50 [26, 29]: 315 nM
- IC50 [26, 30]: < 1000 nM
- IC50 [27, 29]: 3.78 µM
- IC50 [27, 30]: ≥ 1 µM
- IC50 [28, 29]: > 10 µM
- IC50 [28, 30]: ≥ 1 µM
Structure (SMILES): CS(=O)(=O)CCNCc1ccc(-c2ccc3ncnc(Nc4ccc(OCc5cccc(F)c5)c(Cl)c4)c3c2)o1 [lapatinib, N-(3-chloro-4-[[(3-fluorophenyl)methyl]oxy]phenyl)-6-[5-([[2-(methylsulfonyl)ethyl]amino]methyl)-2-furanyl]-4-quinazolineamine bis(4-methylbenzenesulfonate)monohydrate]
- lapatinib sensitivity of cell line (T47D): insensitive
- lapatinib sensitivity of cell line (SK-Br-3): sensitive
- lapatinib sensitivity of cell line (MCF7): insensitive
- lapatinib sensitivity of cell line (BT-474): sensitive
- lapatinib sensitivity of cell line (MDA-MB231): insensitive
